{
  "source": "patent US5981470A",
  "about": "“Uterine fibroid treatment” (The University of Birmingham, priority 1994, dated 1999)",
  "key": {"[1]": {"tested_on": "non-AT1/non-AT2 angiotensin II recognition site", "experiment": "[125I]angiotensin II receptor autoradiography on myometrium/fibroid sections", "type": "binding, human", "details": "for displacement of [125I]angiotensin II from non-AT1/non-AT2 angiotensin II recognition site: FIG. 2, unlabeled ligand 0.1 nM, human non-pregnant myometrium and fibroid sections", "experimental": "Frozen myometrium and fibroid tissues were surrounded in embedding medium (OCT compound, Miles Scientific) before 20 μm sections were cut using a cryostat (-15 to -1 9° C.) and thaw mounted onto gelatin-coated glass slides for receptor autoradiographic studies. Sections were stored (less than 2 week) desiccated at -80° C. until used.\nSlide mounted human myometrial/fibroid sections were removed from storage and allowed approximately 30 min to equilibrate to room temperature. To reduce endogenous levels of angiotensin II in the tissue, the sections were preincubated for 60 min in incubation buffer (mM; sodium chloride, 150; sodium dihydrogen phosphate, 50; magnesium chloride, 10; ethyleneglycol-bis-(β-amino-ethyl ether)-N,N'-tetra-acetic acid, 5 and 0.4% w/v bovine serum albumin, pH 7.4) at 25° C. […] Immediately following incubation, the tissue sections were washed in ice-cold incubation buffer for 2 min and dipped (1 s) in ice-cold distilled water to remove buffer salts. The sections were rapidly dried in a stream of cold dry air and exposed to Hyperfilm-[^3 H]"}, "[2]": {"tested_on": "angiotensin II-induced myometrial cell proliferation", "experiment": "Inhibition of angiotensin II-induced myometrial cell proliferation, Coulter counter", "type": "cell-based, human", "details": "for inhibition of angiotensin II-mediated cell proliferation: FIG. 5, 1.00 μM", "procedure": "Tissue samples were placed into sterile calcium and magnesium-free HBSS containing penicillin (100 U/ml) and streptomycin (100 μg/ml) for transfer to the laboratory. Myometrial cells were isolated by collagenase digestion. Briefly, myometrium was finely chopped and incubated in HBSS containing 1 mg/ml collagenase IA, 20 mM Hepes, 100 U/L penicillin, 100 μg/ml streptomycin and 5 μg/ml fungizone at 37° C. until the cells were dispersed. Myometrial cells were obtained by centrifugation for 15 minutes at 400 g over 60% Percoll and the cells washed with HBSS. Myometrial cells were characterised by their ability to respond to oxytocin and staining for actin.\nCells were maintained in 175 cm^2 flasks in Dulbecco's modified Eagle's medium (DMEM) containing 10% (v/v) fetal calf serum (FCS), 1% L-glutamine,20 mM Hepes and 1% antibiotic-antimycotic mixture (10,000 U penicillin, 10 μg streptomycin, and 25 μg ml^-1 fungizone) at 37° C. in a humidified atmosphere of air/CO2 (19:1) until 95% confluent. Thereafter, the cells were trypsinised, washed and re-plated at a density of 10×10^3 cells per well in 24-well plates in 1 ml of DMEM with 10% FCS for the proliferation studies. After 24 hrs, the medium was removed and replaced with serum-free DMEM. After a further 24 hrs, the experiments were initiated on quiescent monolayers of myometrial cells. […] The corresponding medium was replaced every 24 hrs with fresh medium.\nAt defined time-points, the growth media was removed and the cells were washed with 1 ml of isotonic saline (0.9% sodium chloride), followed by the addition of 1 ml of 10 mM HEPES buffer containing 1.5 mM magnesium chloride, and 2 drops of Zap-oglobin (Coulter Electronics Ltd., Luton, Beds., UK) containing 2.5% acetic acid to each well. The 24-well plate was allowed to incubate at 37° C. for 10 min. After which, the suspended cells were pipetted up and down to disperse the cell clusters. The cell suspension was then added to 9 ml of counting solution containing 0.9% sodium chloride and 0.5% formalin in a Coulter counter container. […] The number of cells in each well was counted at the aperture size of 16 on the Coulter counter (Coulter Electronics Ltd., Luton, Beds U.K.). Three readings were taken for each well and a mean value of the three readings obtained. The mean (±SD) value of cell counts from the triplicate wells was calculated.\nMyometrium cells were maintained in Dulbecco's modified Eagle's medium (MD) with 10% (v/v) FCS, containing 1% L-glutamine, 20 mM HEPES and 1% antibiotic-antimycotic mixture (10,000 U penicillin, 10 mg streptomycin) at 37° C. in a humidified atmosphere of air/CO2 (19:1) until 95% confluent. […] The cell growth was measured at day 4 and day 6 by counting cell numbers in a Coulter Counter. […]"}, "myometrial cells [3]": {"tested_on": "myometrial cells", "experiment": "Myometrial cell proliferation, cell counts in Coulter counter", "type": "cell-based, human", "details": "for cell count, 0 day (+/-SD) / cell count, 4 days (+/-SD) / cell count, 6 days (+/-SD): Table 1, in 1% FCS", "experimental": "Tissue samples were placed into sterile calcium and magnesium-free HBSS containing penicillin (100 U/ml) and streptomycin (100 μg/ml) for transfer to the laboratory. Myometrial cells were isolated by collagenase digestion. Briefly, myometrium was finely chopped and incubated in HBSS containing 1 mg/ml collagenase IA, 20 mM Hepes, […], 100 μg/ml streptomycin and 5 μg/ml fungizone at 37° C. until the cells were dispersed. Myometrial cells were obtained by centrifugation for 15 minutes at 400 g over 60% Percoll and the cells washed with HBSS. Myometrial cells were characterised by their ability to respond to oxytocin and staining for actin.\nCells were maintained in 175 cm^2 flasks in Dulbecco's modified Eagle's medium (DMEM) containing 10% (v/v) fetal calf serum (FCS), 1% L-glutamine,20 mM Hepes and 1% antibiotic-antimycotic mixture (10,000 U penicillin, […], and 25 μg ml^-1 fungizone) at 37° C. in a humidified atmosphere of air/CO2 (19:1) until 95% confluent. Thereafter, the cells were trypsinised, washed and re-plated at a density of 10×10^3 cells per well in 24-well plates in 1 ml of DMEM with 10% FCS for the proliferation studies. After 24 hrs, the medium was removed and replaced with serum-free DMEM. After a further 24 hrs, the experiments were initiated on quiescent monolayers of myometrial cells. To the serum-starved myometrial cells was added either angiotensin II (0.1 μm or 1.0 μm) in the presence or absence of 1% FCS or bFGF (20 ng/ml) or FCS (1%) alone or DuP753 with or without angiotensin II (0.1 μM) and cell growth measured at day 4 and day 6 by counting cell numbers in a Coulter counter as described below. The corresponding medium was replaced every 24 hrs with fresh medium.\nCalibration of the Coulter counter was achieved by counting the myometrium cell suspension at reduced aperture size ranging from 0 to 32. A calibration curve was constructed from the cell counts on the function of the aperture size, and the aperture size corresponding to the middle point of the plateau part of the calibration curve was used for the cell counting. The aperture size used for myometrium cell counting was 16.\nAt defined time-points, the growth media was removed and the cells were washed with 1 ml of isotonic saline (0.9% sodium chloride), followed by the addition of 1 ml of 10 mM HEPES buffer containing 1.5 mM magnesium chloride, and 2 drops of Zap-oglobin (Coulter Electronics Ltd., Luton, Beds., UK) containing 2.5% acetic acid to each well. The 24-well plate was allowed to incubate at 37° C. for 10 min. After which, the suspended cells were pipetted up and down to disperse the cell clusters. The cell suspension was then added to 9 ml of counting solution containing 0.9% sodium chloride and 0.5% formalin in a Coulter counter container. Each well was washed three times with the counting solution from the same container and effluent collected in the same container. The number of cells in each well was counted at the aperture size of 16 on the Coulter counter (Coulter Electronics Ltd., Luton, Beds U.K.). Three readings were taken for each well and a mean value of the three readings obtained. The mean (±SD) value of cell counts from the triplicate wells was calculated.\nAs discussed above, FIG. 3(A) illutrates the effect of angiotensin II on myometrial cell proliferation. Myometrium cells were maintained in Dulbecco's modified Eagle's medium (MD) with 10% (v/v) FCS, containing 1% L-glutamine, 20 mM HEPES and 1% antibiotic-antimycotic mixture (10,000 U penicillin, 10 mg streptomycin) at 37° C. in a humidified atmosphere of air/CO2 (19:1) until 95% confluent. For the proliferation studies, the cells were plated at a density of 10×10^3 cells per well in 24 well plates in 1 ml of DMEM with 10% FCS. After 24 hrs the medium was removed and replaced with serum-free DMEM. After a further 24 hrs, the experiment was initiated on quiescent monolayers of myometrial cells. […]"}, "myometrial cells [4]": {"tested_on": "myometrial cells", "experiment": "[3H]-thymidine incorporation into DNA (DNA synthesis)", "type": "cell-based, human", "details": "FIG. 4; Captopril 0.1 and 1.0 mM; 48 h; serum-free medium", "experimental": "Myometrial cells prepared as described previously were resuspended in culture medium containing DMEM supplemented with 10% (v/v) FCS, 10 mM L-glutamine, 20 mM hepes, 100 U/mi penicillin and 100/μg/ml streptomycin in 24 well plates at a density of approximately 250×10^3 cells per well and maintained at 37° C. in a humidified atmosphere of air/CO2 (19:1).\nDNA synthesis was assayed by measuring [^3 H]-thymidine incorporation into DNA. Subconfluent myometrial cells were made quiescent by incubation with serum-free medium for 48 h, the medium being replaced with serum-free medium containing 0.2% (w/v) bovine serum albumin (BSA) and [^3 H]-thymidine (0.2 μCi/well). The cells were further incubated for 48 h in the presence of angiotensin-converting enzyme (ACE) inhibitor (0.1 and 1.0 mM Captopril, hatched and solid columns respectively) or angiotensin II (100 nM AgII, crossed column). The medium was then removed and the cells incubated with 10% cold trichloroacetic acid TCA) at 4° C. for 15 min. TCA-precipitated material was redissolved in 0.2 M NaOH and the radioactivity determined by liquid scintillation counting in a β-scintillation analyser. Positive and negative controls for proliferation were established by incubating cells with 10% fetal calf serum (square column) and by growth in the absence of the agonist in serum-free medium (open column)."}},
  "data": [
    {"molecule": "Sar-Thr-angiotensin II", "values": [
      {"measurement": "displacement of [125I]angiotensin II from non-AT1/non-AT2 angiotensin II recognition site", "setting": "[1]", "value": "can selectively displace"}
    ]},
    {"molecule": "Sar-Ala-angiotensin II", "values": [
      {"measurement": "displacement of [125I]angiotensin II from non-AT1/non-AT2 angiotensin II recognition site", "setting": "[1]", "value": "can selectively displace"}
    ]},
    {"molecule": "Cc1cc(Cn2cnc3c2CC(C(=O)O)N(C(=O)C(c2ccccc2)c2ccccc2)C3)ccc1N", "note": "(stereo not drawn) [PD123177]", "values": [
      {"measurement": "inhibition of angiotensin II-mediated cell proliferation", "setting": "[2]", "value": "significantly inhibited"},
      {"measurement": "inhibition of angiotensin II-mediated cell growth", "setting": "[2]; preliminary data", "value": "inhibits"}
    ]},
    {"molecule": "bFGF: Basic fibroblast growth factor, classic growth factor, from RD Systems", "values": [
      {"measurement": "cell count, 0 day (+/-SD)", "setting": "myometrial cells [3]", "value": "63.90 +/- 1.88"},
      {"measurement": "cell count, 4 days (+/-SD)", "setting": "myometrial cells [3]", "value": "167.33 +/- 25.11"},
      {"measurement": "cell count, 6 days (+/-SD)", "setting": "myometrial cells [3]", "value": "307.33 +/- 49.69"}
    ]},
    {"molecule": "CCCCc1nc(Cl)c(CO)n1Cc1ccc(-c2ccccc2-c2nn[nH]n2)cc1", "note": "[DuP753]", "values": [
      {"measurement": "inhibition of the effects of angiotensin II on cell proliferation", "setting": "[2]; FIG. 3(B), DuP753 1 μM, angiotensin II 0.1 μM, 1% FCS", "value": "inhibits"},
      {"measurement": "inhibition of angiotensin II-mediated cell proliferation", "setting": "[2]", "value": "significantly inhibited"}
    ]},
    {"molecule": "angiotensin II (DRVYIHPF; Angiotensin-2; UniProt P01019 25-32, looked up)", "values": [
      {"measurement": "intensity of non-AT1/non-AT2 angiotensin II recognition site labelling in fibroid tissue", "setting": "[1]; FIG. 1, cold angiotensin II (1 μM)", "value": "only disappears"},
      {"measurement": "increase in myometrial cell proliferation compared to cells in culture medium devoid of angiotensin II", "setting": "myometrial cells [3]; FIG. 3(A), 0.1 μM, after six days in culture", "value": "~100", "unit": "%"},
      {"measurement": "cell count, 0 day (+/-SD)", "setting": "myometrial cells [3]", "value": "64.33 +/- 2.73"},
      {"measurement": "cell count, 4 days (+/-SD)", "setting": "myometrial cells [3]", "value": "167.33 +/- 21.55"},
      {"measurement": "cell count, 6 days (+/-SD)", "setting": "myometrial cells [3]", "value": "333.67 +/- 7.51"}
    ]},
    {"molecule": "C[C@H](CS)C(=O)N1CCC[C@H]1C(=O)O", "note": "[Captopril]", "values": [
      {"measurement": "reduction of DNA synthesis, of control (0% FCS)", "setting": "myometrial cells [4]", "value": "~50", "unit": "%"}
    ]}
  ]
}
